Assay results as given in BindingDB's records for doi:10.1016/S0960-894X(00)80683-6 (1993).

What was measured:
[1] = biological target: Gastrin/cholecystokinin type B receptor (Cavia porcellus); assay: Ability to inhibit the binding of [125I]-gastrin to gastric glands in guinea pig.
[2] = biological target: Gastrin/cholecystokinin type B receptor (Cavia porcellus); assay: Ability to inhibit the binding of [125I]CCK-8 to Cholecystokinin type B receptor in guinea pig cortex.
[3] = biological target: Gastrin/cholecystokinin type B receptor (Cavia porcellus); assay: as above; remark: listed apart in the source

Row | Structure (SMILES) | IC50 [1] | IC50 [2] | IC50 [3]
1 | COc1cccc(NC(=O)NC2CCc3ccccc3N(CC(=O)O)C2=O)c1 (configuration not stated) [{3-[3-(3-Methoxy-phenyl)-ureido]-2-oxo-2,3,4,5-tetrahydro-benzo[b]azepin-1-yl}-acetic acid] | 3100 nM |  | 8600 nM
2 | CN1CCN(C(=O)CN2C(=O)C(NC(=O)Nc3ccc(Cl)cc3)N=C(c3ccccc3)c3ccccc32)CC1 (configuration not stated) [1-(4-Chloro-phenyl)-3-{1-[2-(4-methyl-piperazin-1-yl)-2-oxo-ethyl]-2-oxo-5-phenyl-2,3-dihydro-1H-benzo[e][1,4]diazepin-3-yl}-urea] | 2.6 nM |  | 8 nM

The remaining lines, values ahead:

Row | IC50 [1] | IC50 [2] | IC50 [3] | Structure (SMILES)
3 | 610 nM | 5000 nM |  | Cc1cccc(NC(=O)NC2CCc3ccccc3N(CC(=O)N3CCN(C)CC3)C2=O)c1 (configuration not stated) [1-{1-[2-(4-Methyl-piperazin-1-yl)-2-oxo-ethyl]-2-oxo-2,3,4,5-tetrahydro-1H-benzo[b]azepin-3-yl}-3-m-tolyl-urea]
4 | 480 nM | 150 nM |  | CC(C)(C)OC(=O)CN1C(=O)C(NC(=O)Nc2cccc3ccccc23)CCc2ccccc21 (configuration not stated) [[3-(3-Naphthalen-1-yl-ureido)-2-oxo-2,3,4,5-tetrahydro-benzo[b]azepin-1-yl]-acetic acid tert-butyl ester]
5 | 460 nM |  | 650 nM | O=C(Nc1cccc2ccccc12)NC1CCc2ccccc2N(CC(=O)N2CCCC2)C1=O (configuration not stated) [1-Naphthalen-1-yl-3-[2-oxo-1-(2-oxo-2-pyrrolidin-1-yl-ethyl)-2,3,4,5-tetrahydro-1H-benzo[b]azepin-3-yl]-urea]
6 | 120 nM |  | 180 nM | CC(C)(C)OC(=O)CN1C(=O)C(NC(=O)Nc2ccc(Cl)cc2)CCc2ccccc21 (configuration not stated) [{3-[3-(4-Chloro-phenyl)-ureido]-2-oxo-2,3,4,5-tetrahydro-benzo[b]azepin-1-yl}-acetic acid tert-butyl ester]
